Measurements as given in PubChem BioAssay AID2060508 (Molecular Pharmacology Branch, DTP, NCI, 2025).
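Further: spheroids exposed to compounds for seven days.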
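Wherever viability, T/C is given: 100% = DMSO vehicle control viability.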

Each compound was assayed on 454973-116-R2-J3-PDC spheroids, viability, % test/control (assay: Anticancer human tumor 454973-116-R2-J3-PDC patient-derived pancreatic carcinoma cell line growth inhibition [GQUAD]). Details: curve of first compound; second compound 10 µM; spheroids with HUVEC and MSC.
Summary of the method: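 Tumor cells were grown as complex spheroids with HUVEC endothelial cells and mesenchymal stem cells as stroma. G-quadruplex stabilizers were combined with targeted agents over half-log dilutions from near the clinical Cmax, or from 10 microM.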
`C=CCn1c(=O)c2cnc(Nc3ccc(N4CCN(C)CC4)cc3)nc2n1-c1cccc(C(C)(C)O)n1` + Cc1cnc(CNC(=O)c2c(=O)c3ccc(N4CCCN(C)CC4)nc3n3c2sc2ccccc23)cn1 showed an IC50 of less than 31.6 nM. For `CC(C)(O)C1CCC(Nc2ccc3ncc(-c4cccc(C(F)(F)F)c4)n3n2)CC1` (stereo unspecified) + Cc1cnc(CNC(=O)c2c(=O)c3ccc(N4CCCN(C)CC4)nc3n3c2sc2ccccc23)cn1, the IC50 was less than 31.6 nM. `Cc1[nH]c2ccccc2c1CCNCc1ccc(/C=C/C(=O)NO)cc1` + Cc1cnc(CNC(=O)c2c(=O)c3ccc(N4CCCN(C)CC4)nc3n3c2sc2ccccc23)cn1 was tested, and the IC50 was less than 0.999 nM. Work on `O=C(NO)c1cnc(N2CCN(S(=O)(=O)c3ccc4ccccc4c3)CC2)nc1` + Cc1cnc(CNC(=O)c2c(=O)c3ccc(N4CCCN(C)CC4)nc3n3c2sc2ccccc23)cn1 yielded an IC50 of less than 31.6 nM.

Same assay, conditions: second compound 0.0316 µM; first compound 0.000999 µM; stronger effect = lower value; spheroids with HUVEC and MSC
For `Cc1[nH]c2ccccc2c1CCNCc1ccc(/C=C/C(=O)NO)cc1` + Cc1cnc(CNC(=O)c2c(=O)c3ccc(N4CCCN(C)CC4)nc3n3c2sc2ccccc23)cn1, the viability, T/C was 96%.

Same assay, conditions: second compound 0.0316 µM; first compound 0.00316 µM; stronger effect = lower value; spheroids with HUVEC and MSC
With `Cc1[nH]c2ccccc2c1CCNCc1ccc(/C=C/C(=O)NO)cc1` + Cc1cnc(CNC(=O)c2c(=O)c3ccc(N4CCCN(C)CC4)nc3n3c2sc2ccccc23)cn1 the viability, T/C was 97.9%.

Same assay, conditions: second compound 0.0316 µM; first compound 0.00999 µM; stronger effect = lower value; spheroids with HUVEC and MSC
`Cc1[nH]c2ccccc2c1CCNCc1ccc(/C=C/C(=O)NO)cc1` + Cc1cnc(CNC(=O)c2c(=O)c3ccc(N4CCCN(C)CC4)nc3n3c2sc2ccccc23)cn1 gave a viability, T/C of 106%.

Same assay, conditions: second compound 0.0316 µM; first compound 0.0316 µM; stronger effect = lower value; spheroids with HUVEC and MSC
`C#Cc1c(F)ccc2cc(O)cc(-c3ncc4c(N5CC6CCC(C5)N6)nc(OCC56CCCN5CC(F)C6)nc4c3F)c12` (stereo unspecified) + Cc1cnc(CNC(=O)c2c(=O)c3ccc(N4CCCN(C)CC4)nc3n3c2sc2ccccc23)cn1 was tested, and the viability, T/C was 45.9%. Compound `C=CCn1c(=O)c2cnc(Nc3ccc(N4CCN(C)CC4)cc3)nc2n1-c1cccc(C(C)(C)O)n1` + Cc1cnc(CNC(=O)c2c(=O)c3ccc(N4CCCN(C)CC4)nc3n3c2sc2ccccc23)cn1 has a viability, T/C of 98%. For `CC(C)(O)C1CCC(Nc2ccc3ncc(-c4cccc(C(F)(F)F)c4)n3n2)CC1` (stereo unspecified) + Cc1cnc(CNC(=O)c2c(=O)c3ccc(N4CCCN(C)CC4)nc3n3c2sc2ccccc23)cn1, the viability, T/C was 108%. `Cc1[nH]c2ccccc2c1CCNCc1ccc(/C=C/C(=O)NO)cc1` + Cc1cnc(CNC(=O)c2c(=O)c3ccc(N4CCCN(C)CC4)nc3n3c2sc2ccccc23)cn1 gave a viability, T/C of 76.2%. `O=C(NO)c1cnc(N2CCN(S(=O)(=O)c3ccc4ccccc4c3)CC2)nc1` + Cc1cnc(CNC(=O)c2c(=O)c3ccc(N4CCCN(C)CC4)nc3n3c2sc2ccccc23)cn1 showed a viability, T/C of 105%.

Same assay, conditions: second compound 0.0316 µM; first compound 0.0999 µM; stronger effect = lower value; spheroids with HUVEC and MSC
`Cc1[nH]c2ccccc2c1CCNCc1ccc(/C=C/C(=O)NO)cc1` + Cc1cnc(CNC(=O)c2c(=O)c3ccc(N4CCCN(C)CC4)nc3n3c2sc2ccccc23)cn1 showed a viability, T/C of 27.9%.

Same assay, conditions: second compound 0.0316 µM; first compound 0.1 µM; stronger effect = lower value; spheroids with HUVEC and MSC
`C#Cc1c(F)ccc2cc(O)cc(-c3ncc4c(N5CC6CCC(C5)N6)nc(OCC56CCCN5CC(F)C6)nc4c3F)c12` (stereo unspecified) + Cc1cnc(CNC(=O)c2c(=O)c3ccc(N4CCCN(C)CC4)nc3n3c2sc2ccccc23)cn1 was tested, and the viability, T/C was 40.8%. `C=CCn1c(=O)c2cnc(Nc3ccc(N4CCN(C)CC4)cc3)nc2n1-c1cccc(C(C)(C)O)n1` + Cc1cnc(CNC(=O)c2c(=O)c3ccc(N4CCCN(C)CC4)nc3n3c2sc2ccccc23)cn1 showed a viability, T/C of 78.8%. `CC(C)(O)C1CCC(Nc2ccc3ncc(-c4cccc(C(F)(F)F)c4)n3n2)CC1` (stereo unspecified) + Cc1cnc(CNC(=O)c2c(=O)c3ccc(N4CCCN(C)CC4)nc3n3c2sc2ccccc23)cn1 gave a viability, T/C of 89.3%. `O=C(NO)c1cnc(N2CCN(S(=O)(=O)c3ccc4ccccc4c3)CC2)nc1` + Cc1cnc(CNC(=O)c2c(=O)c3ccc(N4CCCN(C)CC4)nc3n3c2sc2ccccc23)cn1 showed a viability, T/C of 81.9%.

Same assay, conditions: second compound 0.0316 µM; first compound 0.316 µM; stronger effect = lower value; spheroids with HUVEC and MSC
For `C#Cc1c(F)ccc2cc(O)cc(-c3ncc4c(N5CC6CCC(C5)N6)nc(OCC56CCCN5CC(F)C6)nc4c3F)c12` (stereo unspecified) + Cc1cnc(CNC(=O)c2c(=O)c3ccc(N4CCCN(C)CC4)nc3n3c2sc2ccccc23)cn1, the viability, T/C was 28.3%. With `C=CCn1c(=O)c2cnc(Nc3ccc(N4CCN(C)CC4)cc3)nc2n1-c1cccc(C(C)(C)O)n1` + Cc1cnc(CNC(=O)c2c(=O)c3ccc(N4CCCN(C)CC4)nc3n3c2sc2ccccc23)cn1 the viability, T/C was 27%. `CC(C)(O)C1CCC(Nc2ccc3ncc(-c4cccc(C(F)(F)F)c4)n3n2)CC1` (stereo unspecified) + Cc1cnc(CNC(=O)c2c(=O)c3ccc(N4CCCN(C)CC4)nc3n3c2sc2ccccc23)cn1 gave a viability, T/C of 96.5%. `Cc1[nH]c2ccccc2c1CCNCc1ccc(/C=C/C(=O)NO)cc1` + Cc1cnc(CNC(=O)c2c(=O)c3ccc(N4CCCN(C)CC4)nc3n3c2sc2ccccc23)cn1 was tested, and the viability, T/C was 3.29%. Compound `O=C(NO)c1cnc(N2CCN(S(=O)(=O)c3ccc4ccccc4c3)CC2)nc1` + Cc1cnc(CNC(=O)c2c(=O)c3ccc(N4CCCN(C)CC4)nc3n3c2sc2ccccc23)cn1 has a viability, T/C of 28.5%.

Same assay, conditions: second compound 0.0316 µM; first compound 1 µM; stronger effect = lower value; spheroids with HUVEC and MSC
Work on `C#Cc1c(F)ccc2cc(O)cc(-c3ncc4c(N5CC6CCC(C5)N6)nc(OCC56CCCN5CC(F)C6)nc4c3F)c12` (stereo unspecified) + Cc1cnc(CNC(=O)c2c(=O)c3ccc(N4CCCN(C)CC4)nc3n3c2sc2ccccc23)cn1 yielded a viability, T/C of 23.2%. `C=CCn1c(=O)c2cnc(Nc3ccc(N4CCN(C)CC4)cc3)nc2n1-c1cccc(C(C)(C)O)n1` + Cc1cnc(CNC(=O)c2c(=O)c3ccc(N4CCCN(C)CC4)nc3n3c2sc2ccccc23)cn1 showed a viability, T/C of 11.7%. `CC(C)(O)C1CCC(Nc2ccc3ncc(-c4cccc(C(F)(F)F)c4)n3n2)CC1` (stereo unspecified) + Cc1cnc(CNC(=O)c2c(=O)c3ccc(N4CCCN(C)CC4)nc3n3c2sc2ccccc23)cn1 was tested, and the viability, T/C was 75%. Work on `O=C(NO)c1cnc(N2CCN(S(=O)(=O)c3ccc4ccccc4c3)CC2)nc1` + Cc1cnc(CNC(=O)c2c(=O)c3ccc(N4CCCN(C)CC4)nc3n3c2sc2ccccc23)cn1 yielded a viability, T/C of 1.33%.
